In patent US12233047B2, “Pharmaceutical combination and use thereof” (ASCENTAGE PHARMA (SUZHOU) CO., LTD., priority 2019, dated 2025):

Molecular target: T1, FLT3 (wild type) (Homo sapiens, UniProt P36888)
T1 construct: host or cells: T7 phage in E. coli (BL21-derived) or HEK-293
T1 sequence (P36888 27-993): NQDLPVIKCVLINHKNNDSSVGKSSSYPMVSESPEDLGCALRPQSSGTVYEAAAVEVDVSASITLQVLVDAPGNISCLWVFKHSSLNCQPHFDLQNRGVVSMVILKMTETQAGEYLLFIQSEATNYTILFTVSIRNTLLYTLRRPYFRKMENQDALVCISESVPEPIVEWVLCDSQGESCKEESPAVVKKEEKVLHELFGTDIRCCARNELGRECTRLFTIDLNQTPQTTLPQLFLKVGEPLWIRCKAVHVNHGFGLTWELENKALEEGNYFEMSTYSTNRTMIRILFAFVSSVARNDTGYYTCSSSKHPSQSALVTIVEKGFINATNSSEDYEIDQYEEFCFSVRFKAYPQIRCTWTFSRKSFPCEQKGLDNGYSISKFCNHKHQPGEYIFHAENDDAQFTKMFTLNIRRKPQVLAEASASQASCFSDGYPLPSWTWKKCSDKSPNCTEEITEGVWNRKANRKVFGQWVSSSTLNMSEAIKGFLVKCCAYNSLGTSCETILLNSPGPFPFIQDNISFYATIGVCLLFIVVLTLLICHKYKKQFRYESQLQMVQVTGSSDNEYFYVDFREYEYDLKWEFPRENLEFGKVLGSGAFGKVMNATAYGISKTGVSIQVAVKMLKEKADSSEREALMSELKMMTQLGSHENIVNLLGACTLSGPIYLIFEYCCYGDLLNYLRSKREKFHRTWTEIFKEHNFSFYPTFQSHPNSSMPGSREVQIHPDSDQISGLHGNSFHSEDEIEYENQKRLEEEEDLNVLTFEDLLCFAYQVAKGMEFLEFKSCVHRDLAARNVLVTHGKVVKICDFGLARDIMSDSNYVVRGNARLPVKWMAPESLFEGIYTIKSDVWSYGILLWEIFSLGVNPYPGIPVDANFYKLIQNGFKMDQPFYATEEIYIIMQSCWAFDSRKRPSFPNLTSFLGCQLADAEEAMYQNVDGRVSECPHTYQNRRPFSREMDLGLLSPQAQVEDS
Experiment: KINOMEscan kinase binding assay, FLT3 (wild type)
Conditions: lower % Ctrl = stronger binding
Procedure: The kinase assay was conducted using KINOMEscan™.
Kinase-tagged T7 phage strains were grown in parallel in 24-well blocks in an E. coli host derived from the BL21 strain. E. coli were grown to log-phase and infected with T7 phage from a frozen stock (multiplicity of infection=0.4) and incubated with shaking at 32° C. until lysis (90-150 minutes). The lysates were centrifuged (6,000×g) and filtered (0.2 μm) to remove cell debris. The remaining kinases were produced in HEK-293 cells and subsequently tagged with DNA for qPCR detection. Streptavidin-coated magnetic beads were treated with biotinylated small molecule ligands for 30 minutes at room temperature to generate affinity resins for kinase assays. The liganded beads were blocked with excess biotin and washed with blocking buffer (SeaBlock (Pierce), 1% BSA, 0.05% Tween 20, 1 mM DTT) to remove unbound ligand and to reduce non-specific phage binding. Binding reactions were assembled by combining kinases, liganded affinity beads, and test compound (Compound 23) in 1× binding buffer (20% SeaBlock, 0.17×PBS, 0.05% Tween 20, 6 mM DTT). Test compound were prepared as 40× stocks in 100% DMSO and directly diluted into the assay. All reactions were performed in polypropylene 384-well plates in a final volume of 0.04 ml. […] The kinase concentration in the eluates was measured by qPCR. […]

Cc1ccc(C(=O)Nc2ccc(CN3CCN(C)CC3)c(C(F)(F)F)c2)cc1C#Cc1cnc2[nH]ncc2c1 [Compound 23, 3-(2-(1H-pyrazolo[3,4-b]pyridin-5-yl)ethynyl)-4-methyl-N-(4-((4-methylpiperazin-1-yl)methyl)-3-(trifluoromethyl)phenyl)benzamide]
% Ctrl@10 nM (10 nM): 2.4 % Ctrl | % Ctrl@100 nM (100 nM): 0.75 % Ctrl
